Patent EP0603240B1, “SAFENING HERBICIDAL PYRAZOLYLSULFONYLUREAS” (priority 1991, dated 1993)

Experiments:
Assay type in all cases: in vivo
[1] = test system: velvetleaf (Abutilon theophrasti); assay: Example 18, Procedure II: Herbicide No. 1 + ERADICANE (EPTC + R-25788) with auxiliary antidotes
Procedure: (§1) Containers were filled and compacted with a fumigated silt loam top soil to a depth of about 1.3 cm from the top of the container. A first container was designated as an untreated control, a second container was designated as a herbicide control, and a third container was designated as a herbicide + antidote test container. Each of the containers was seeded with a crop species. A measured amount of herbicide dispersed or dissolved in acetone was applied to a measured quantity of soil. To this same quantity of soil treated with herbicide, there was added a measured amount of antidote dispersed or dissolved in acetone. The quantity of soil treated with the herbicide and antidote was thoroughly mixed to incorporate the herbicide and antidote in the soil uniformly. The seed bed in the third container of soil was covered with the soil treated with the herbicide and antidote and the container was leveled. For each test series, the seed beds of the first and second containers were likewise covered by soil layers. the cover layer of the first container was not treated with herbicide or antidote.
(§2) The containers were then placed on a bench in a greenhouse and sub-irrigated as required for the duration of the test. […] Plant response is measured in terms of percent injury. Antidote efficacy is indicated as the difference in plant injury by the herbicide(s) without the antidote and with the antidote.
(§3) This procedure is the same as Procedure I, but modified in the manner that after incorporation of the chemicals (herbicide and antidote) the containers with the covered seedbed were treated with an initial overhead irrigation equivalent to 0.6 cm rainfall, then subsequently sub-irrigated as required on greenhouse benches.
(§4) In the series of greenhouse tests described below, for routine screening purposes the herbicide/antidote compositions were tested in crop/weed combinations involving corn as the crop and either or both of the weeds barnyardgrass (Echinochloa crusgalli), a monocotyledonous weed, and velvetleaf (Abutilon theophrasti), a dicotyledonous weed. In the tables below, these weeds are indicated by the symbols "BYG" and "VL", respectively.
(§5) In the test reported in this example, the herbicidal composition was similar to that used in Example 16 in that Herbicide No. 1 was combined with EPTC (Herbicide No. 4) as a co-herbicide and the antidotes included Nos. 1, 2, 7, 13 and 15. However, in this test the EPTC was introduced as a formulation of ERADICANE (EPTC + the antidote R-25788, i.e., Antidote No. 1) at an application rate of 8.96 kg/ha. Thus, in this test two antidotes were present, viz. R-25788 and one of the auxilliary antidotes, No. 2, 13 and 15.
(§6) Test procedures were those of Procedure II above.

[2] = test system: barnyardgrass (Echinochloa crusgalli); assay: as above
Procedure: as §1, §2, §3, §4, §5, §6

[3] = test system: velvetleaf (Abutilon theophrasti); assay: Example 21, Procedure II: Herbicide No. 1 + SUTAN PLUS (butylate + antidote) with antidotes
Procedure: as §1, §2, §3, §4
(§7) In this example, tests were conducted as in the preceding Examples 18-20, except here the co-herbicidal component was SUTAN® PLUS, a commercial product comprising as the active herbicidal ingredient the compound butylate (Herbicide No. 10) and an antidote […] (Antidote No. 1). Again, the antidotal compounds herein were Nos. 1, 2, 7, 13 and 15. Procedure II was used.

[4] = test system: barnyardgrass (Echinochloa crusgalli); assay: as above
Procedure: as §1, §2, §3, §4, §7

[5] = test system: velvetleaf (Abutilon theophrasti); assay: Example 19, Procedure II: Herbicide No. 1 + ERADICANE EXTRA with added antidotes
Procedure: as §1, §2, §3, §4, §5
(§8) The test reported in this example was performed in the same manner and with the same antidotes used in Example 18, the only difference being the substitution of the commercial herbicidal product ERADICANE® EXTRA for ERADICANE®. ERADICANE EXTRA is a formulation containing both an antidote, i.e., R-29148 (Antidote No. 5 herein), and an extender, dietholate.

[6] = test system: barnyardgrass (Echinochloa crusgalli); assay: as above
Procedure: as §1, §2, §3, §4, §5, §8

[7] = Herbicide No.1 0.56 kg/ha + ERADICANE 8.96 kg/ha, no added antidote
[8] = Herbicide No.1 0.56 kg/ha alone
[9] = Herbicide No.1 1.12 kg/ha + ERADICANE 8.96 kg/ha, no added antidote
[10] = Herbicide No.1 1.12 kg/ha alone
[11] = Herbicide No.1 0.56 kg/ha + SUTAN + 8.96 kg/ha, no added antidote
[12] = Herbicide No.1 1.12 kg/ha + SUTAN + 8.96 kg/ha, no added antidote
[13] = Herbicide No.1 0.56 kg/ha + ERADICANE EXTRA 8.96 kg/ha, no added antidote
[14] = Herbicide No.1 1.12 kg/ha + ERADICANE EXTRA 8.96 kg/ha, no added antidote

Question: How did the “% Injury VL” value [1, 7] turn out when `COC(=O)c1c(Cl)nn(C)c1S(=O)(=O)NC(=O)Nc1nc(OC)cc(OC)n1` [No.1] was run?
Answer: Its value is 80%.

Question: And the “% Injury VL” value [1, 8]?
Answer: Its value is 45%.

Question: What about the “% Injury VL” value [1, 9] of the same compound?
Answer: Its value is 75%.

Question: What about the “% Injury VL” value [1, 10] of the same compound?
Answer: The value was 55%.

Question: And the “% Injury BYG” value [2, 7]?
Answer: Its value is 90%.

Question: And the “% Injury BYG” value [2, 8]?
Answer: Its value is 30%.

Question: What about the “% Injury BYG” value [2, 9] of the same compound?
Answer: The value was 85%.

Question: What about the “% Injury BYG” value [2, 10] of the same compound?
Answer: Its value is 55%.

Question: What about the “% Injury VL” value [3, 11] of the same compound?
Answer: The value was 60%.

Question: What about the “% Injury VL” value [3, 8] of the same compound?
Answer: The value was 50%.

Question: And the “% Injury VL” value [3, 12]?
Answer: Its value is 70%.

Question: What about the “% Injury VL” value [3, 10] of the same compound?
Answer: The value was 65%.

Question: What about the “% Injury BYG” value [4, 11] of the same compound?
Answer: Its value is 20%.

Question: And the “% Injury BYG” value [4, 8]?
Answer: Its value is 10%.

Question: And the “% Injury BYG” value [4, 12]?
Answer: The value was 50%.

Question: And the “% Injury BYG” value [4, 10]?
Answer: Its value is 10%.

Question: What about the “% Injury VL” value [5, 13] of the same compound?
Answer: Its value is 80%.

Question: And the “% Injury VL” value [5, 8]?
Answer: Its value is 50%.

Question: And the “% Injury VL” value [5, 14]?
Answer: The value was 85%.

Question: And the “% Injury VL” value [5, 10]?
Answer: The value was 65%.

Question: What about the “% Injury BYG” value [6, 13] of the same compound?
Answer: The value was 95%.

Question: What about the “% Injury BYG” value [6, 8] of the same compound?
Answer: Its value is 30%.

Question: What about the “% Injury BYG” value [6, 14] of the same compound?
Answer: The value was 95%.

Question: What about the “% Injury BYG” value [6, 10] of the same compound?
Answer: The value was 70%.
